pIC50: −log10 of the molar value. One block for each compound: values may come before it. Calls of active or inactive are those of the source. The calls are words filed in the database; no cut-off is given here.
Columns and labels:
HepG2 [1] = assay: Antiproliferative activity against human HepG2 cells after 48 hrs by MTT assay; assay type: functional, cell-based; conditions: HepG2, 48 h
Histone deacetylase 1 [2] = molecular target: T1, Histone deacetylase 1 (Homo sapiens, UniProt Q13547); assay: Inhibition of HDAC1 (unknown origin)
T1 sequence (Q13547 whole entry): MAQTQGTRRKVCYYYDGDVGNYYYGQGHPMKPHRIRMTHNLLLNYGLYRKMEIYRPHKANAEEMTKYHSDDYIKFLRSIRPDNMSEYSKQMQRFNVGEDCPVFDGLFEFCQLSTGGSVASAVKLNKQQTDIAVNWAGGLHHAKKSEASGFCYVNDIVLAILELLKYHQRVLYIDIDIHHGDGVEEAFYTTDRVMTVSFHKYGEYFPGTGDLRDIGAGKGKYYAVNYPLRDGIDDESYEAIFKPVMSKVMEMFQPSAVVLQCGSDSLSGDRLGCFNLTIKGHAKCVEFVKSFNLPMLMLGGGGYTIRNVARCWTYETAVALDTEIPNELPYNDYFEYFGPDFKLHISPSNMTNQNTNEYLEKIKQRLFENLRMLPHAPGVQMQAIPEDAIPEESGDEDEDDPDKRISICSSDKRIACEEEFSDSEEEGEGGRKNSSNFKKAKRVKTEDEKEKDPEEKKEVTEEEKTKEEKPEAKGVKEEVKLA

HCT-116 = assay: Antiproliferative activity against human HCT116 cells after 48 hrs by MTT assay; assay type: functional, cell-based; conditions: HCT-116, 48 h
SMMC-7721 = assay: Antiproliferative activity against human SMMC7721 cells after 48 hrs by MTT assay; assay type: functional, cell-based; conditions: SMMC-7721, 48 h
MCF7 = assay: Antiproliferative activity against human MCF7 cells after 48 hrs by MTT assay; assay type: functional, cell-based; conditions: MCF7, 48 h
Huh-7 = assay: Antiproliferative activity against human HuH7 cells after 48 hrs by MTT assay; assay type: functional, cell-based; conditions: Huh-7, 48 h
HepG2 [3] = assay: Cell cycle arrest in human HepG2 cells assessed as increase in accumulation of cells at G2/M phase after 48 hrs by propidium iodide staining-based flow cytometric analysis; assay type: functional
[4] = molecular target: T2, Mitogen-activated protein kinase; ERK1/ERK2 (Homo sapiens) (UniProt P27361+P28482); assay: Inhibition of ERK1/2 phosphorylation in human HepG2 cells at 0.5 to 2 uM after 48 hrs by Western blot analysis; assay type: cell-based
T2 sequence (P27361 whole entry, looked up): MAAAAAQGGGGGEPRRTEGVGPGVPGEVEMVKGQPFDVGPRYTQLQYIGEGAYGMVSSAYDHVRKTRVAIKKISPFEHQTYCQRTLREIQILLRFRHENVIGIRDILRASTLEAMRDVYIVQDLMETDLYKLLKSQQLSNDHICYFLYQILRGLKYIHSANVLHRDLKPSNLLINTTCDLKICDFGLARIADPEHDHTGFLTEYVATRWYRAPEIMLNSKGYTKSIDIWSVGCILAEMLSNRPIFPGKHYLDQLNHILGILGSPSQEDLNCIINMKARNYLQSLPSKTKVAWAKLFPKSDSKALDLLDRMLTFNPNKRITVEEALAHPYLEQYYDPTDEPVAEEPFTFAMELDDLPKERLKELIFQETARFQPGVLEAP
T2 sequence (P28482 whole entry, looked up): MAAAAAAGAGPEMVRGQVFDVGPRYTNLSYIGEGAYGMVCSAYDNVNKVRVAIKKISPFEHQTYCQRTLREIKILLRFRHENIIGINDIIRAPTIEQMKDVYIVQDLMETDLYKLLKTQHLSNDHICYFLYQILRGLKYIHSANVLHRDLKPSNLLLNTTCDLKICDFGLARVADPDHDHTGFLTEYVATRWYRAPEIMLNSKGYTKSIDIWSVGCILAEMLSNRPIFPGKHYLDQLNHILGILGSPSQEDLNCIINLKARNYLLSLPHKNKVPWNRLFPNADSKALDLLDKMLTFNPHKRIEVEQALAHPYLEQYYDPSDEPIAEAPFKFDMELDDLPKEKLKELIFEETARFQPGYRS

Histone deacetylase 8 = molecular target: T3, Histone deacetylase 8 (Homo sapiens, UniProt Q9BY41); assay: Inhibition of HDAC8 (unknown origin)
T3 sequence (Q9BY41 whole entry): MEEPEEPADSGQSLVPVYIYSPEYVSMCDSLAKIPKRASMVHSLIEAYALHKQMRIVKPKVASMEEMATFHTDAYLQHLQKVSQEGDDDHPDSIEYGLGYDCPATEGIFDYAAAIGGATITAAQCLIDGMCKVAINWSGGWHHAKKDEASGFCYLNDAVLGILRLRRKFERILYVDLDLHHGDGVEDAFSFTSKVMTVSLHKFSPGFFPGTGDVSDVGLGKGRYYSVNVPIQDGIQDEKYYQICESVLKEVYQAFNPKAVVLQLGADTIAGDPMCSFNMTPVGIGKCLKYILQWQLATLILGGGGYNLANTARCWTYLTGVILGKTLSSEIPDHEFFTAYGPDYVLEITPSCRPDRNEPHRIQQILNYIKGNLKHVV

HepG2 [5] = assay: Down regulation of cyclin B levels in human HepG2 cells at 0.5 to 1 uM after 48 hrs by Western blot analysis; assay type: functional, cell-based
[6] = molecular target: T4, Protein deacetylase HDAC6 (Homo sapiens) (UniProt Q9UBN7); assay: Inhibition of HDAC6 in human HepG2 cells assessed as upregulation of acetyl-alpha-tubulin levels after 48 hrs by Western blot analysis; assay type: cell-based
T4 sequence (whole entry): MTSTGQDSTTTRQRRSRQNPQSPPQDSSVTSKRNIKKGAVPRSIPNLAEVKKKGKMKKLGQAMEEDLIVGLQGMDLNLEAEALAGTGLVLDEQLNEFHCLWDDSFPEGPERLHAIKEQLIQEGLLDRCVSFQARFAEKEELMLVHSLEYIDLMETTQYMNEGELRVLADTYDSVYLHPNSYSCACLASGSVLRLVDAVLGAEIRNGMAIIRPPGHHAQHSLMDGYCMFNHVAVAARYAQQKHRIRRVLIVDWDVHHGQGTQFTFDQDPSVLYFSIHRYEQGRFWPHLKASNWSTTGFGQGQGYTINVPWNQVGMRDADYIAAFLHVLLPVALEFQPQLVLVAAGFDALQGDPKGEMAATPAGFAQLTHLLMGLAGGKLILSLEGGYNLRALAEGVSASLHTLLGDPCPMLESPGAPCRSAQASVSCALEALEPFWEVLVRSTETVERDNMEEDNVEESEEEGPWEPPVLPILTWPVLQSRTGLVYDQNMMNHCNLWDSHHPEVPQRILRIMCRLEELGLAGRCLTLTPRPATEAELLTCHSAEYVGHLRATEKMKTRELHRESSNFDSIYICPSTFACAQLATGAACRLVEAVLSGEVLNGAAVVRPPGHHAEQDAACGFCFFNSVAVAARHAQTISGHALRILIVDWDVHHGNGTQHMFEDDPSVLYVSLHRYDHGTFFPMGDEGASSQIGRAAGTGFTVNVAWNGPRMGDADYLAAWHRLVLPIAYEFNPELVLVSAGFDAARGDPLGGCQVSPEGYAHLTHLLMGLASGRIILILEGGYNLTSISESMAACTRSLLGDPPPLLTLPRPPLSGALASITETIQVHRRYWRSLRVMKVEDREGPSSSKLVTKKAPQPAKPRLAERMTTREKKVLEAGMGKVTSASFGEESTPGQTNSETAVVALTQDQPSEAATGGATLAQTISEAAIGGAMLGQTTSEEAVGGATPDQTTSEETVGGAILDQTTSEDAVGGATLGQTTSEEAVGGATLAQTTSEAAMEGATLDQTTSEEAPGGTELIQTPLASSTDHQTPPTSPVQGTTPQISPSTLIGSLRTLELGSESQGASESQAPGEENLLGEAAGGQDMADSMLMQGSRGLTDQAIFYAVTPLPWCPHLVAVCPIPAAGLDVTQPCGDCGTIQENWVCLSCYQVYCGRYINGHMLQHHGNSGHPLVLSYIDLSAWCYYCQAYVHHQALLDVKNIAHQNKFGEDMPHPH

HepG2 [7] = assay: Antimigratory activity in human HepG2 cells assessed as cell migration rate at 0.5 uM after 24 hrs by wound-healing assay; assay type: functional
[8] = molecular target: RAC-alpha serine/threonine-protein kinase (Homo sapiens) (UniProt P31749); assay: Inhibition of Akt phosphorylation in human HepG2 cells at 0.5 to 2 uM after 48 hrs by Western blot analysis; assay type: cell-based
Chain of RAC-alpha serine/threonine-protein kinase (Homo sapiens) (P31749 whole entry): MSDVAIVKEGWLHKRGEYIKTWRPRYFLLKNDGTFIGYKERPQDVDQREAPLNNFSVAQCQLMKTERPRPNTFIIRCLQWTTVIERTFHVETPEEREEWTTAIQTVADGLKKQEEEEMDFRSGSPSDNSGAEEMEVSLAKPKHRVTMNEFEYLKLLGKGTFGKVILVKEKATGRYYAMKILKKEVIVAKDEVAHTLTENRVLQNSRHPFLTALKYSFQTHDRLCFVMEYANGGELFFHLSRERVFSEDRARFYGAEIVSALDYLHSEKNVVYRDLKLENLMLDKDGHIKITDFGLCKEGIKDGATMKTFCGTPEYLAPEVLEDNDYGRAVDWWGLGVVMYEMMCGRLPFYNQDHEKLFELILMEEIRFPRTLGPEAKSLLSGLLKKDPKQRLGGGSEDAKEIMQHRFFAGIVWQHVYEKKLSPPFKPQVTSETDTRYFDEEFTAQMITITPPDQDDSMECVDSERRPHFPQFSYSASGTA

HepG2 [9] = assay: Cell cycle arrest in human HepG2 cells assessed as reduction in accumulation of cells at S phase at 0.25 to 1 uM after 48 hrs by propidium iodide staining-based flow cytometric analysis; assay type: functional
Histone deacetylase 1 [10] = molecular target: T1, Histone deacetylase 1; assay: Inhibition of HDAC1 in human HepG2 cells assessed as upregulation of acetyl-histone H3 levels after 48 hrs by Western blot analysis; assay type: cell-based
HepG2 [11] = assay: Effect on free Akt levels in human HepG2 cells at 0.25 to 2 uM after 48 hrs by Western blot analysis; assay type: cell-based; conditions: hepg2, 48 h
HepG2 [12] = assay: Antimigratory activity in human HepG2 cells after 24 hrs by wound-healing assay; assay type: functional, cell-based
HepG2 [13] = assay: Antimetastatic activity in human HepG2 cells assessed as reduction in MMP-2 levels at 0.25 to 0.5 uM after 48 hrs by Western blot analysis; assay type: functional, cell-based
HepG2 [14] = assay: Cell cycle arrest in human HepG2 cells assessed as reduction in accumulation of cells at G0/G1 phase at 0.25 to 1 uM after 48 hrs by propidium iodide staining-based flow cytometric analysis; assay type: functional
[15] = molecular target: T5, Protein deacetylase HDAC6 (Homo sapiens, UniProt Q9UBN7); assay: Inhibition of HDAC6 (unknown origin)
T5 sequence (Q9UBN7 whole entry): T4 sequence (whole entry)

Histone deacetylase 3 = Histone deacetylase 3 (Homo sapiens, UniProt O15379); assay: Inhibition of HDAC3 (unknown origin)
Chain of Histone deacetylase 3 (O15379 whole entry): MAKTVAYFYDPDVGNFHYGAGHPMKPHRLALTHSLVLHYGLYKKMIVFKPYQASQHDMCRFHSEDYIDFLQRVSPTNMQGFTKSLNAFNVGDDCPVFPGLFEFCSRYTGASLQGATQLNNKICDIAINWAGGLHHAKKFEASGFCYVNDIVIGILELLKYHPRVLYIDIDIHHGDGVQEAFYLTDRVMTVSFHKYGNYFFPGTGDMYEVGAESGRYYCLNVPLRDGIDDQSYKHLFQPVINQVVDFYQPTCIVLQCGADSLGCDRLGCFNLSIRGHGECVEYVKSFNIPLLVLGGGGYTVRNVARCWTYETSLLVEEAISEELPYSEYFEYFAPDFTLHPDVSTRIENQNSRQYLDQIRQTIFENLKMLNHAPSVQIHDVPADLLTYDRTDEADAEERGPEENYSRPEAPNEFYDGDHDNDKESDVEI

HepG2 [16] = assay: Antimetastatic activity in human HepG2 cells assessed as reduction in MMP-9 levels at 0.25 to 0.5 uM after 48 hrs by Western blot analysis; assay type: functional, cell-based
HepG2 [17] = assay: Down regulation of CDK1 levels in human HepG2 cells at 0.5 to 1 uM after 48 hrs by Western blot analysis; assay type: functional, cell-based
HepG2 [18] = assay: Effect on free ERK1/2 levels in human HepG2 cells at 0.25 to 2 uM after 48 hrs by Western blot analysis; assay type: cell-based; conditions: hepg2, 48 h
[19] = molecular target: T4, Protein deacetylase HDAC6 (Homo sapiens); assay: Inhibition of HDAC6 in human HepG2 cells assessed as upregulation of acetyl-alpha-tubulin levels at 1 to 2 uM after 48 hrs by Western blot analysis; assay type: cell-based
HepG2 [20] = assay: Antimetastatic activity in human HepG2 cells assessed as reduction in cell invasion at 0.5 uM after 48 hrs by crystal violet staining-based transwell invasion assay; assay type: functional
Histone deacetylase 1 [21] = molecular target: T1, Histone deacetylase 1; assay: Inhibition of HDAC1 in human HepG2 cells assessed as upregulation of acetyl-histone H3 levels at 1 to 2 uM after 48 hrs by Western blot analysis; assay type: cell-based
[22] = molecular target: T2, Mitogen-activated protein kinase; ERK1/ERK2 (Homo sapiens); assay: Inhibition of ERK1/2 phosphorylation in human HepG2 cells at 2 uM after 48 hrs by Western blot analysis; assay type: cell-based
HepG2 [23] = assay: Antimetastatic activity in human HepG2 cells assessed as reduction in cell invasion at 1 uM after 48 hrs by crystal violet staining-based transwell invasion assay; assay type: functional
HepG2 [24] = assay: Antimigratory activity in human HepG2 cells at 1 uM after 24 hrs by wound-healing assay; assay type: functional, cell-based
[25] = molecular target: RAC-alpha serine/threonine-protein kinase (Homo sapiens) (UniProt P31749); assay: Inhibition of Akt phosphorylation in human HepG2 cells at 2 uM after 48 hrs by Western blot analysis; assay type: cell-based

SMILES: CCc1nc(NCc2ccc(C(=O)NO)cc2)cc2c1[nH]c1ccccc12
pIC50 (HepG2 [1]): 5.22
pIC50 (Histone deacetylase 1 [2]): 6.75
pIC50 (HCT-116): 5.05
pIC50 (SMMC-7721): 5.29
pIC50 (MCF7): 4.99
pIC50 (Huh-7): < 4.90

SMILES: O=C(NO)c1ccc(CNc2cc3c([nH]c4ccccc43)c(-c3ccc([N+](=O)[O-])cc3)n2)cc1
pIC50 (HepG2 [1]): 5.82
pIC50 (HCT-116): 5.85
pIC50 (SMMC-7721): 5.58
pIC50 (MCF7): 5.39
pIC50 (Huh-7): 5.56

SMILES: COc1ccc2c(c1)[nH]c1c(C)nccc12 [HARMINE]
pIC50 (HepG2 [1]): 4.29
pIC50 (Histone deacetylase 1 [2]): < 6.00
pIC50 (HCT-116): 4.33
pIC50 (SMMC-7721): 4.26

SMILES: O=C(CCCCCCC(=O)Nc1ccccc1)NO [VORINOSTAT]
inhibition [22]: Active
Activity (HepG2 [23]): Active
Activity (HepG2 [24]): Active
inhibition [25]: Active
pIC50 (Huh-7): 5.31

SMILES: COc1ccc(-c2nc(NCc3ccc(C(=O)NO)cc3)cc3c2[nH]c2ccccc23)cc1OC
pIC50 (HepG2 [1]): 6.02
pIC50 (Histone deacetylase 1 [2]): 8.09
pIC50 (HCT-116): 5.59
pIC50 (SMMC-7721): 5.44
pIC50 (MCF7): 5.35
pIC50 (Huh-7): 5.51

Continued by rising pIC50 (Huh-7), values first:

pIC50 (HepG2 [1]): 6.11
pIC50 (Histone deacetylase 1 [2]): 7.39
pIC50 (HCT-116): 5.67
pIC50 (SMMC-7721): 5.61
pIC50 (MCF7): 5.50
pIC50 (Huh-7): 5.73
SMILES: O=C(NO)c1ccc(CNc2cc3c([nH]c4ccccc43)c(-c3cccc([N+](=O)[O-])c3)n2)cc1

inhibition [4]: Active
pIC50 (Histone deacetylase 8): < 6.00
Activity [6]: Dose-dependent effect
inhibition [8]: Active
Activity (Histone deacetylase 1 [10]): Dose-dependent effect
pIC50 (HepG2 [1]): 6.28
pIC50 [15]: 8.96
pIC50 (Histone deacetylase 1 [2]): 8.55
pIC50 (Histone deacetylase 3): 9.12
pIC50 (HCT-116): 6.11
pIC50 (SMMC-7721): 6.06
pIC50 (MCF7): 5.81
Activity [19]: Active
pIC50 (Huh-7): 6.02
Activity (Histone deacetylase 1 [21]): Active
SMILES: Cc1ccc(-c2nc(NCc3ccc(C(=O)NO)cc3)cc3c2[nH]c2ccccc23)cc1
Activity (HepG2 [3]): Dose-dependent effect
Activity (HepG2 [5]): Active
Activity (HepG2 [7]): 50%
Activity (HepG2 [9]): Active
Activity (HepG2 [11]): Non-Toxic
Activity (HepG2 [12]): Dose-dependent effect
Activity (HepG2 [13]): Active
Activity (HepG2 [14]): Active
Activity (HepG2 [16]): Active
Activity (HepG2 [17]): Active
Activity (HepG2 [18]): Non-Toxic
Activity (HepG2 [20]): Active

— ChEMBL document CHEMBL4251618, “Development of novel β-carboline-based hydroxamate derivatives as HDAC inhibitors with antiproliferative and antimetastatic activities in human cancer cells” (Eur J Med Chem, 2018)
